Measurements: the NIST ThermoML archive (doi:10.1021/acs.jced.8b00662)

Tests used:
[1] = 100 kPa, Liquid; for viscosity: Falling or rolling sphere viscometry; for mass density: Vibrating tube method
[2] = xn = mol fraction of the nth substance listed; conditions: 100 kPa, Liquid; for viscosity: Falling or rolling sphere viscometry; for mass density: Vibrating tube method

c1ccc2c(c1)CCCC2 [1,2,3,4-tetrahydronaphthalene]
[1]
Conditions | mass density [kg/m3] | viscosity [mPa·s]
293.15 K | 968.89 | 2.233
298.15 K | 964.92 | 2.019
303.15 K | 960.96 | 1.838
308.15 K | 956.99 | 1.681
313.15 K | 953.03 | 1.546
318.15 K | 949.05 | 1.428
323.15 K | 945.1 | 1.324
328.15 K | 941.13 | 1.233
333.15 K | 937.17 | 1.151
338.15 K | 933.19 | 1.079
343.15 K | 929.2 | 1.013

c1ccc2c(c1)CCCC2 [1,2,3,4-tetrahydronaphthalene] + CC(C)C1CCCCC1
[2], x1 = 1
Conditions | mass density [kg/m3] | viscosity [mPa·s]
293.15 K | 968.89 | 2.233
298.15 K | 964.92 | 2.019
303.15 K | 960.96 | 1.838
308.15 K | 956.99 | 1.681
313.15 K | 953.03 | 1.546
318.15 K | 949.05 | 1.428
323.15 K | 945.1 | 1.324
328.15 K | 941.13 | 1.233
333.15 K | 937.17 | 1.151
338.15 K | 933.19 | 1.079
343.15 K | 929.2 | 1.013

c1ccc2c(c1)CCCC2 [1,2,3,4-tetrahydronaphthalene] + OCC1CC1
[2], x1 = 1
Conditions | mass density [kg/m3] | viscosity [mPa·s]
293.15 K | 968.89 | 2.233
298.15 K | 964.92 | 2.019
303.15 K | 960.96 | 1.838
308.15 K | 956.99 | 1.681
313.15 K | 953.03 | 1.546
318.15 K | 949.05 | 1.428
323.15 K | 945.1 | 1.324
328.15 K | 941.13 | 1.233
333.15 K | 937.17 | 1.151
338.15 K | 933.19 | 1.079
343.15 K | 929.2 | 1.013

CC(C)C1CCCCC1 [(1-methylethyl)cyclohexane]
[1]
Conditions | mass density [kg/m3] | viscosity [mPa·s]
293.15 K | 802.14 | 1.093
298.15 K | 798.24 | 1.016
303.15 K | 794.34 | 0.947
308.15 K | 790.43 | 0.886
313.15 K | 786.51 | 0.831
318.15 K | 782.59 | 0.782
323.15 K | 778.66 | 0.738
328.15 K | 774.72 | 0.698
333.15 K | 770.77 | 0.661
338.15 K | 766.81 | 0.628
343.15 K | 762.84 | 0.598

OCC1CC1 [cyclopropylmethanol]
[1]
Conditions | mass density [kg/m3] | viscosity [mPa·s]
293.15 K | 913.02 | 3.988
298.15 K | 908.96 | 3.455
303.15 K | 904.87 | 3.009
308.15 K | 900.74 | 2.635
313.15 K | 896.59 | 2.321
318.15 K | 892.38 | 2.054
323.15 K | 888.17 | 1.825
328.15 K | 883.86 | 1.629
333.15 K | 879.52 | 1.46
338.15 K | 875.1 | 1.316
343.15 K | 870.62 | 1.19

OCC1CC1 [cyclopropylmethanol] + CC(C)C1CCCCC1
[2], x2 = 0
Conditions | mass density [kg/m3] | viscosity [mPa·s]
293.15 K | 913.02 | 3.988
298.15 K | 908.96 | 3.455
303.15 K | 904.87 | 3.008
308.15 K | 900.74 | 2.635
313.15 K | 896.59 | 2.321
318.15 K | 892.38 | 2.054
323.15 K | 888.17 | 1.825
328.15 K | 883.86 | 1.629
333.15 K | 879.52 | 1.46
338.15 K | 875.1 | 1.317
343.15 K | 870.62 | 1.19
